The record followed here is US8497298B2, “Use of benzo-fused heterocycle sulfamide derivatives for lowering lipids and lowering blood glucose levels” (Janssen Pharmaceutica NV, priority 2005, dated 2013).

One data set relates to db/db mice. Description: Female db/db Mouse Assay, Study A: single dose part and dose response part (Example 14). The class given is in vivo. The text has this: 0.5% Hydroxypropyl Methylcellulose (Methocel) used as vehicle/control.
Db/db mice are susceptible to Type 2 diabetes. […] All of the mice were quarantined for a period of one week before transfer to the animal procedure room. A drop of blood (about 2 microliters) was collected by tail puncture and glucose concentration was detected with a glucometer (OneTouch UltraSmart, Lifescan, Milpitas, Calif.). […] Animals were separated and single housed at least three days prior to the drug treatments to allow acclimation to the new surroundings.
In the second, dose response part of Study A, 48 mice were allocated into 4 treatment groups of 12 mice each.
The dosing volume was 5 mL/kg body weight (0.2 mL for 40 gram mice). The mice were fed ad lib throughout the study. A necropsy was completed 18 hours after last dosing.
Blood glucose levels were measured from blood collected through tail puncture using a glucometer at 1000 hour. The mice were anaesthetized with sodium pentobarbital (1 ml/kg, intraperitoneal [i.p.] injection, SleepAway, Fort Dodge, Iowa) and blood was drawn via cardiac puncture using 1 mL syringe and collected into heparinized tubes. White adipose tissues (WAT) (retroperitoneal and inguinal fat pads), brown adipose tissure (BAT) and skeletal muscles (gastrocnemius and soleus muscle) and stomach contents were dissected and weighed. Plasma samples were obtained by centrifuging whole blood at 2000˜3000 g for 10˜20 minutes at 4° C. and stored at −20° C. for further measurement of insulin, HDL, LDL, total cholesterol and triglyceride.
Plasma insulin concentrations were measured by in both studies using the appropriate rat/mouse insulin enzyme-linked immunosorbent assay (ELISA) kit (EZRMI-13K, LINCO Research, St. Charles, Mo.). Blood samples were diluted 1:4 in charcoal stripped mouse serum that was included in the ELISA kit. The rest of the procedure followed the manufacturers instruction. The total fluorescence was detected using an Orion 1 Microplate Luminometer (Berthold Detection Systems, Pforzheim, Germany).
According to manufacturers protocol, cholesterol measurement was an enzymatic method utilizing cholesterol esterase and cholesterol oxidase conversion followed by a Trinder endpoint; Elimination/catalase method was used for HDL measurement; an enzymatic method with a Trinder endpoint was used for triglyceride measurement.
Data from both parts of the Study (single dose and dose response) was analyzed using the standard two-tailed Student's t-test and are expressed below as means and standard errors.

[1] abbreviates: single dose part, rosiglitazone 20 mg/kg.
The mark [2] stands for this setting: single dose part, rosiglitazone 20 mg/kg positive control.
[3] abbreviates: single dose part, rosiglitazone 20 mg/kg, plasma.

The term melting point denotes the temperature, or range, at which the solid turns liquid. Regarding `NS(=O)(=O)NCC1CCc2ccccc2O1` (centres unmarked) [Compound #10, Chroman-2-ylmethylsulfamide], the melting point was 100 to 101 °C.

Regarding `CN(CCOc1ccc(CC2SC(=O)NC2=O)cc1)c1ccccn1` (centres unmarked) [Rosiglitazone, rosiglitazone, reference compound], the “total cholesterol concentrations elevated relative to vehicle” value in the data set on db/db mice (rosiglitazone, dose not given) is 35.1%. For the same compound, in the data set on db/db mice (setting [1]), the “Brown Adipose Tissue” value stood at 0.32 ± 0.02 g, the “Final weight Body weight” value worked out at 43 ± 1.0 g, the “Final weight Stomach contents” value is listed as 0.32 ± 0.04 g and the Inguinal fat was found to be 2.44 ± 0.11 g. Also, in the data set on db/db mice (setting [1]), the Muscle is listed as 0.154 ± 0.00 g, the Retroperitoneal fat was determined as 1.45 ± 0.10 g, the “Total chow consumption Day 1-3” value is given as 21 ± 0.8 g and the “Total chow consumption Day 4-6” value was 22 ± 0.9 g. For the same compound, the “Total chow consumption Day 7-9” value in the data set on db/db mice (setting [1]) is given as 19 ± 0.7 g. In the data set on db/db mice (setting [2]), this compound displayed a Glucose of 170 ± 23 mg/dL and an Insulin of 11.2 ± 2.3 ng/mL. Besides, in the data set with db/db mice (setting [3]), the Cholesterol turned out to be 123 ± 8 mg/dL, the HDL is on record as 62.5 ± 3.2 mg/dL, the LDL worked out at 3.3 ± 0.3 mg/dL and the “Ratio (Triglyceride to HDL)” value is 1.6 ± 0.3. In the data set on db/db mice (setting [3]), this compound registered a Triglyceride of 105 ± 23 mg/dL. Moreover, the “Ratio (fat/muscle)” value with db/db mice (single dose part, rosiglitazone 20 mg/kg, total inguinal and retroperitoneal fat/muscle weight) is given as 25.4 ± 1.6. In the data set with db/db mice (single dose part, rosiglitazone, p<0.05 vs vehicle 0.3±0.2 g), this compound showed a weight gain of 3.1 ± 0.4 g.
